The source of these data is patent publication US7803803B2, “Tetrahydrofuro[3,2-B] pyrrol-3-ones as cathepsin K inhibitors” (Amura Therapeutics Limited, priority 2007, dated 2010).

What is called Ki is a measure of affinity in units of concentration, obtained from inhibition or displacement. What is called logD is lipophilicity at a set pH, counting ionised and neutral species. Usually IC50 stands for the point on the concentration scale where inhibition reaches its midpoint.

One data set concerns the target T1, cathepsin K (Homo sapiens, UniProt P43235).
T1 sequence (P43235 115-329): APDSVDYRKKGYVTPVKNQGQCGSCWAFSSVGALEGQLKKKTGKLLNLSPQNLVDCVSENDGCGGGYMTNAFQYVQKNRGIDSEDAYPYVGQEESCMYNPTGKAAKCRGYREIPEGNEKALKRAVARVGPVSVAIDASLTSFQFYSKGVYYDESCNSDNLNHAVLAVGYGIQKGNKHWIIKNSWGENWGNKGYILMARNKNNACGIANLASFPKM
Briefly: In vitro cathepsin Ki inhibition measurements. It is filed as biochemical. Also noted: purchased B. Turk, Josef Stefan Institute, Ljubljana, Slovenia. As to conditions: human recombinant cathepsin K; read-out: In vitro Ki (nM) vs Cath K. As for the experimental part:
Stock solutions of substrate or inhibitor were made up to 10 mM in 100% dimethylsulfoxide (DMSO) (Rathburns, Glasgow, U.K.) and diluted as appropriately required. In all cases the DMSO concentration in the assays was maintained at less than 1% (vol./vol.). The equilibrium inhibition constants (Ki^SS) for each compound were measured under steady-state conditions monitoring enzyme activity as a function of inhibitor concentration. The values were calculated on the assumption of pure competitive behaviour (Cornish-Bowden, A. Fundamentals of enzyme kinetics Portland Press; 1995, 93-128). Human recombinant cathepsin K (0.25 nM final; B. Turk, Josef, Stefan Institute, Ljubljana, Slovenia), was routinely assayed in 100 mM sodium acetate; pH 5.5 containing 1 mM EDTA, 10 mM L-cysteine and 1.8 μM Z-Leu-Arg-AMC ([S]═KM).
The apparent inhibition constant (Ki) for each compound was determined on the basis that inhibition was reversible and occurred by a pure-competitive mechanism. The Ki values were calculated, from the dependence of enzyme activity as a function of inhibitor concentration, by direct regression analysis (Prism v 3.02) using Equation 2 (Cornish-Bowden, A., 1995).
In situations where the apparent dissociation constant (Ki^app) approached the enzyme concentrations, the Ki^app values were calculated using a quadratic solution in the form described by Equation 3 (Morrison, J. F. Trends Biochem. Sci., 7, 102-105, 1982; Morrison, J. F. Biochim. Biophys. Acta, 185, 269-286, 1969; Stone, S. R. and Hofsteenge, J. Biochemistry, 25, 4622-4628, 1986).
Curves were fitted by non-linear regression analysis (Prism) using a fixed value for the enzyme concentration. Equation 4 was used to account for the substrate kinetics, where ‘Ki’ is the inhibition constant, ‘[So]’ is the initial substrate concentration and ‘KM^app’ is the apparent macroscopic binding (Michaelis) constant for the substrate (Morrison, 1982).

The nature of data set [1]: Plasma incubations (human plasma stability). Note: tested at 25 µM. As to conditions: 37° C. It is filed as in vitro ADME.
Method: Aliquots were removed at 2 and 60 minutes and quenched with an equal volume of cold acetonitrile. After mixing vigorously, the precipitated protein matter was removed by filtration (Multiscreen Solvinert filter plates, Millipore, Bedford, Mass., USA) and the filtrate analysed by reverse phase HPLC with mass spectrometric detection, using single ion monitoring of the [M+H]^+ species. Metabolic turnover was determined by comparison of peak areas from the ion chromatograms of the parent compound at 2 and 60 minutes and expressed as percent remaining at 1 hour.
A short description of the next data set: LogD determinations. The format is physicochemical. As to conditions: Ion-count method; for logD at 1 h: 1-octanol/phosphate buffered saline, pH 7.4, pH 7.4.
A further data set concerns human osteoclasts. Briefly: Human osteoclast resorption assay. The format is cell-based. As to conditions: for inhibition at 1 µM: Homo sapiens, Osteoclast, 48 h, 1 □ M, read-out: Cell-based % Inh. @ 1 □ M Human; for IC50: read-out: Cell-based Human IC50. As for the experimental part: Bone resorption was studied using a model where human osteoclast precursor cells were cultured on bovine bone slices for 9 days and allowed to differentiate into bone-resorbing osteoclasts. The formed mature osteoclasts were then allowed to resorb bone. The assay was performed by Pharmatest Services Ltd, Itäinen Pitkakatu 4C, Turku, Finland. After the culture period, bone collagen degradation products were quantified from the culture medium as an index of bone resorption. Inhibitor compounds were added into the cell cultures after the differentiation period and their effects on the resorbing activity of mature osteoclasts were determined. The studies included a baseline group without added compounds and a positive control group where a potent cathepsin K inhibitor E-64 was added.
Human peripheral blood monocytes were suspended to culture medium and allowed to attach to bovine bone slices. The bone slices were transferred into 96-well tissue culture plates containing culture medium with appropriate amounts of important growth factors favouring osteoclast differentiation, including M-CSF, RANK-ligand and TGF-[…]. The cells were incubated in a CO2 incubator in humidified atmosphere of 95% air and 5% carbon dioxide at 37° C. At day 7 when osteoclast differentiation was complete, the culture medium was replaced with culture medium containing conditions favouring osteoclast activity. The cell culture was continued for an additional 2 days, during which the formed mature osteoclasts were allowed to resorb bone in the presence of vehicle, control inhibitor (E64) or test compounds. At the end of the culture, bone collagen degradation products released into the culture medium were determined using a commercially available ELISA method (CrossLaps® for culture, Nordic Bioscience, Herlev, Denmark) as an index of bone resorption (see Bagger, Y. Z. et al, J. Bone. Miner. Res. 14 (suppl. 1), S370).

Bounds are passed on as bounds.

Method for LogD determinations: LogD(PBS) determinations were performed in 96 well microtitre plates using a miniaturised “shake-flask” method. […] The plates were then capped and mixed vigorously for 1 hour on a microtitre plate shaker, after which they were left to stand, allowing the PBS and octanol phases to separate. The PBS layer was analysed by reverse phase HPLC with mass spectrometric detection, using single ion monitoring of the [M+H]^+ species.
Where AUCstd and AUCpbs are the peak areas from the standard and test ion chromatograms respectively.

Take `COCCN1CCN(c2ccc(C(=O)N[C@@H](CC(C)C)C(=O)N3C[C@@H](OC)[C@H]4OCC(=O)[C@H]43)cc2)CC1` [Example 28, N—((S)-1-((3aS,6R,6aS)-6-methoxy-3-oxodihydro-2H-furo[3,2-b]pyrrol-4(5H,6H,6aH)-yl)-4-methyl-1-oxopentan-2-yl)-4-(4-(2-methoxyethyl)piperazin-1-yl)benzamide]: the inhibition constant (Ki) on cathepsin K came out at 14.4 nM. Further, the “Human Plasma Stability % rem. @ 1 h” value in data set [1] is on record as 88%. Further, the “LogD pH 7.4” value in the data set “LogD determinations” was found to be 0.76. In the data set with human osteoclasts, the inhibition at 1 µM was in the range of 25 to 54%.

On to `CCN1CCN(c2ccc(C(=O)N[C@@H](CC(C)(C)C)C(=O)N3C[C@@H](OC)[C@H]4OCC(=O)[C@H]43)cc2)CC1` [Example 8, 4-(4-ethylpiperazin-1-yl)-N—((S)-1-((3aS,6R,6aS)-6-methoxy-3-oxodihydro-2H-furo[3,2-b]pyrrol-4(5H,6H,6aH)-yl)-4,4-dimethyl-1-oxopentan-2-yl)benzamide], for which the Ki at cathepsin K is 9.2 nM. In addition, the “Human Plasma Stability % rem. @ 1 h” value in data set [1] amounted to 92%. Also, in the data set “LogD determinations”, the logD at 1 h was above 0.8 and the “LogD pH 7.4” value is listed as 1.09. Besides, the inhibition at 1 µM in the data set on human osteoclasts is 63 to 88%.

For the compound `CO[C@H]1CN(C(=O)[C@@H](NC(=O)c2ccc(N3CCN(C)CC3)cc2)C2CCCC2)[C@@H]2C(=O)CO[C@H]12`, on cathepsin K, the Ki came out at 1.8 nM. Further, the “Human Plasma Stability % rem. @ 1 h” value in data set [1] is 93.6%. For the same compound, in the data set “LogD determinations”, the log distribution coefficient (logD) at 1 h stood at 1.36. The 50% inhibitory concentration (IC50) in the data set on human osteoclasts turned out to be 52 nM.

As for `CO[C@@H]1CN(C(=O)[C@H](CC(C)(C)C)NC(=O)c2ccc(N3CCN(C)CC3)cc2)[C@@H]2C(=O)CO[C@@H]21` [Example 4, N—((S)-1-((3aS,6R,6aS)-6-methoxy-3-oxodihydro-2H-furo[3,2-b]pyrrol-4(5H,6H,6aH)-yl)-4,4-dimethyl-1-oxopentan-2-yl)-4-(4-methylpiperazin-1-yl)benzamide], at cathepsin K, the Ki was 5.6 nM. Also, in data set [1], the “Human Plasma Stability % rem. @ 1 h” value is 89%. Moreover, in the data set “LogD determinations”, the logD at 1 h was above 0.8 and the “LogD pH 7.4” value is listed as 0.84. Further, in the data set with human osteoclasts, the inhibition at 1 µM was 63 to 88%.

As to `COCCN1CCN(c2ccc(C(=O)N[C@@H](CC(C)C)C(=O)N3C[C@H](OC)[C@H]4OCC(=O)[C@H]43)cc2)CC1` [Example 27, N—((S)-1-((3aS,6S,6aS)-6-methoxy-3-oxodihydro-2H-furo[3,2-b]pyrrol-4(5H,6H,6aH)-yl)-4-methyl-1-oxopentan-2-yl)-4-(4-(2-methoxyethyl)piperazin-1-yl)benzamide], the Ki on cathepsin K came out at 6.3 nM. Also, in data set [1], the “Human Plasma Stability % rem. @ 1 h” value was 99%. In “LogD determinations”, the log distribution coefficient (logD) at 1 h was above 0.8 and the “LogD pH 7.4” value was determined as 1.23. Further, the inhibition at 1 µM in the data set on human osteoclasts was 63 to 88%.

As to `CCCN1CCC(c2ccc(C(=O)N[C@@H](CC(C)(C)C)C(=O)N3C[C@@H](OC)[C@H]4OCC(=O)[C@H]43)cc2)CC1` [Example 38, N—((S)-1-((3aS,6R,6aS)-6-methoxy-3-oxodihydro-2H-furo[3,2-b]pyrrol-4(5H,6H,6aH)-yl)-4,4-dimethyl-1-oxopentan-2-yl)-4-(1-propylpiperidin-4-yl)benzamide], the Ki at cathepsin K amounted to 8.2 nM. Besides, in data set [1], the “Human Plasma Stability % rem. @ 1 h” value worked out at 99%. In addition, in the data set “LogD determinations”, the pH-dependent lipophilicity (logD) at 1 h is above 0.8 and the “LogD pH 7.4” value is recorded as 1.12. For the same compound, in the data set on human osteoclasts, the inhibition at 1 µM was in the range of 63 to 88%.

`CCCN1CCN(c2ccc(C(=O)N[C@@H](CC(C)C)C(=O)N3C[C@@H](OC)[C@H]4OCC(=O)[C@H]43)cc2)CC1` [Example 15, N—((S)-1-((3aS,6R,6aS)-6-methoxy-3-oxodihydro-2H-furo[3,2-b]pyrrol-4(5H,6H,6aH)-yl)-4-methyl-1-oxopentan-2-yl)-4-(4-propylpiperazin-1-yl)benzamide]: the inhibition constant Ki at cathepsin K was 16.3 nM. For the same compound, in data set [1], the “Human Plasma Stability % rem. @ 1 h” value was determined as 92%. Further, in “LogD determinations”, the log distribution coefficient (logD) at 1 h is above 0.8 and the “LogD pH 7.4” value worked out at 1.34. Further, the inhibition at 1 µM in the data set on human osteoclasts lay in the range of 63 to 88%.

For `CCN1CCN(c2ccc(C(=O)N[C@@H](CC(C)C)C(=O)N3C[C@H](OC)[C@H]4OCC(=O)[C@H]43)cc2)CC1` [Example 5, 4-(4-ethylpiperazin-1-yl)-N—((S)-1-((3aS,6S,6aS)-6-methoxy-3-oxodihydro-2H-furo[3,2-b]pyrrol-4(5H,6H,6aH)-yl)-4-methyl-1-oxopentan-2-yl)benzamide], the inhibition constant (Ki) at cathepsin K stood at 5.8 nM. Besides, in data set [1], the “Human Plasma Stability % rem. @ 1 h” value was 96%. Also, in “LogD determinations”, the logD at 1 h is above 0.8 and the “LogD pH 7.4” value was 1.05. In addition, in the data set on human osteoclasts, the inhibition at 1 µM was 63 to 88%.

As for `COCCN1CCN(c2ccc(C(=O)N[C@@H](CC(C)C)C(=O)N3C[C@@H](O)[C@H]4OCC(=O)[C@H]43)cc2)CC1` [Example 26, N—((S)-1-((3aS,6R,6aS)-6-hydroxy-3-oxodihydro-2H-furo[3,2-b]pyrrol-4(5H,6H,6aH)-yl)-4-methyl-1-oxopentan-2-yl)-4-(4-(2-methoxyethyl)piperazin-1-yl)benzamide], at cathepsin K, the Ki worked out at 8.1 nM. Besides, in data set [1], the “Human Plasma Stability % rem. @ 1 h” value is reported as 95%. The “LogD pH 7.4” value in the data set “LogD determinations” is given as 0.23. In the data set on human osteoclasts, the inhibition at 1 µM lay within 25 to 54%.

In the case of `COCCN1CCN(c2ccc(C(=O)N[C@@H](CC(C)C)C(=O)N3C[C@H](N)[C@H]4OCC(=O)[C@H]43)cc2)CC1` [Example 23, N—((S)-1-((3aS,6S,6aR)-6-amino-3-oxodihydro-2H-furo[3,2-b]pyrrol-4(5H,6H,6aH)-yl)-4-methyl-1-oxopentan-2-yl)-4-(4-(2-methoxyethyl)piperazin-1-yl)benzamide], at cathepsin K, the inhibition constant Ki came to 11.2 nM. Also, the “Human Plasma Stability % rem. @ 1 h” value in data set [1] is on record as 88%. The “LogD pH 7.4” value in “LogD determinations” is 0.55. In addition, the inhibition at 1 µM in the data set on human osteoclasts lay within 25 to 54%.

For the compound `CCCN1CCN(c2ccc(C(=O)N[C@@H](CC(C)(C)C)C(=O)N3C[C@@H](OC)[C@H]4OCC(=O)[C@H]43)cc2)CC1` [Example 16, N—((S)-1-((3aS,6R,6aS)-6-methoxy-3-oxodihydro-2H-furo[3,2-b]pyrrol-4(5H,6H,6aH)-yl)-4,4-dimethyl-1-oxopentan-2-yl)-4-(4-propylpiperazin-1-yl)benzamide], the inhibition constant (Ki) at cathepsin K was found to be 3.7 nM. In addition, the “Human Plasma Stability % rem. @ 1 h” value in data set [1] is 97%. In addition, in “LogD determinations”, the “LogD pH 7.4” value is 1.69. The inhibition at 1 µM in the data set on human osteoclasts lay within 63 to 88%.

For the compound `CO[C@H]1CN(C(=O)[C@H](CC(C)(C)C)NC(=O)c2ccc(N3CCN(C)CC3)cc2)[C@@H]2C(=O)CO[C@H]12` [Example 2, N—((S)-1-((3aS,6S,6aS)-6-methoxy-3-oxodihydro-2H-furo[3,2-b]pyrrol-4(5H,6H,6aH)-yl)-4,4-dimethyl-1-oxopentan-2-yl)-4-(4-methylpiperazin-1-yl)benzamide], the inhibition constant Ki on cathepsin K stood at 6.3 nM. In addition, the “Human Plasma Stability % rem. @ 1 h” value in data set [1] was 93%. For the same compound, in “LogD determinations”, the pH-dependent lipophilicity (logD) at 1 h is above 0.8 and the “LogD pH 7.4” value is given as 1.00. Moreover, the inhibition at 1 µM with human osteoclasts lay within 63 to 88%.

For `CCN1CCN(c2ccc(C(=O)N[C@H](C(=O)N3C[C@@H](OC)[C@H]4OCC(=O)[C@H]43)C3CCCC3)cc2)CC1`, on cathepsin K, the inhibitory constant (Ki) is 3.4 nM. Further, in data set [1], the “Human Plasma Stability % rem. @ 1 h” value is 90.7%. The log distribution coefficient (logD) at 1 h in the data set “LogD determinations” turned out to be 0.95. In the data set on human osteoclasts, the IC50 turned out to be 231 nM.
